Experimental data from patent US20220192955A1, “AZOXYSTROBIN EFFICACY IN SCALP HEALTH” (The Procter & Gamble Company, priority 2020, published 2022).
Marks after values point to notes of the source that are not given here.

How the values were obtained:
[1] = test system: IL-1RA: IL-1α; experiment: Scalp tape strip inflammatory cytokines IL-1RA:IL-1α; type: in vivo, human
Protocol: (§1) Subjects are enrolled in a double-blind, randomized study for all test groups and have Baseline and Week 3 measurements of scalp health taken for flaking, itch and scalp health endpoints. Subjects take home a test product(s) and are instructed on use of test products throughout the study. Test products are solubilized in a hydroalcoholic leave-on formulation. Azoxystrobin raw material is sourced from AK Scientific Inc. (Union City, Calif.) as >97% pure. Azoxystrobin scalp treatment is prepared from a slurry of azoxystrobin in ethanol that is formulated to 0.1% (w/v) in a base chassis of 50% ethanol, 0.35% Ultrez 21 (rheology modifier), 0.05% neutrol TE and water (q.s.). […] Biomarkers of scalp health, including biomarkers of inflammation, itch, oxidative stress and barrier integrity are assessed by non-invasive tape strip sampling of the scalp surface to determine therapeutic resolution. All biomarkers are analyzed from D-Squame® scalp tape samples that are collected from the scalp of subjects before and after scalp treatment with either azoxystrobin or vehicle (Baseline, and Week 3 respectively). These are extracted and analyzed according to published methods (International Journal of Dermatology 2011, 50, 102-113, incorporated by reference herein). […] Human inflammatory cytokines are analyzed to evaluate skin irritation and inflammatory processes. […]

[2] = cited from earlier work
[3] = test system: Myeloperoxidase; experiment: Scalp tape strip myeloperoxidase protein; type: in vivo, human
Protocol: as §1, with “Myeloperoxidase protein is” for “Human inflammatory cytokines are”, “determine the impact of scalp treatment oxidative stress” for “evaluate skin irritation”, “potential oxidative damage.” for “inflammatory processes.”

[4] = test system: human scalp (dandruff); experiment: In vivo scalp health study: adherent scalp flaking score (ASFS)
Protocol: Subjects are enrolled in a double-blind, randomized study for all test groups and have Baseline and Week 3 measurements of scalp health taken for flaking, itch and scalp health endpoints. Subjects take home a test product(s) and are instructed on use of test products throughout the study. Test products are solubilized in a hydroalcoholic leave-on formulation. Azoxystrobin raw material is sourced from AK Scientific Inc. (Union City, Calif.) as >97% pure. Azoxystrobin scalp treatment is prepared from a slurry of azoxystrobin in ethanol that is formulated to 0.1% (w/v) in a base chassis of 50% ethanol, 0.35% Ultrez 21 (rheology modifier), 0.05% neutrol TE and water (q.s.). Vehicle scalp treatment is prepared similarly without the addition of azoxystrobin raw material. Subjects apply either azoxystrobin or vehicle scalp treatments daily for 3 weeks. Grading of the scalp is performed by qualified expert graders for adherent scalp flaking scores (ASFS) as described in published methods. Detailed methods can be found in Journal of Dermatological Treatment 2014, 25, 232-236, incorporated by reference herein. Briefly, flaking severity of a subject is assessed by examination of the scalp which is illuminated by lighting that mimics daylight conditions. The scalp is divided into eight sections and each section is assessed for the presence of dandruff flakes that are adhering to the scalp skin using a 0 to 10 (increment of 2 units) scale. Loose flakes in the hair are not considered in the grading. The final, or total, ASFS is the sum of the grades for all eight scalp sections, which results in a scale ranging from 0 to 80 units. The change in flaking across time is reported as change from baseline at the 3-week time point.

[5] = test system: human serum albumin; experiment: Scalp tape strip barrier integrity: human serum albumin; type: in vivo
Protocol: Subjects are enrolled in a double-blind, randomized study for all test groups and have Baseline and Week 3 measurements of scalp health taken for flaking, itch and scalp health endpoints. Subjects take home a test product(s) and are instructed on use of test products throughout the study. Test products are solubilized in a hydroalcoholic leave-on formulation. […] Azoxystrobin scalp treatment is prepared from a slurry of azoxystrobin in ethanol that is formulated to 0.1% (w/v) in a base chassis of 50% ethanol, 0.35% Ultrez 21 (rheology modifier), 0.05% neutrol TE and water (q.s.). Vehicle scalp treatment is prepared similarly without the addition of azoxystrobin raw material. Subjects apply either azoxystrobin or vehicle scalp treatments daily for 3 weeks. […] All biomarkers are analyzed from D-Squame® scalp tape samples that are collected from the scalp of subjects before and after scalp treatment with either azoxystrobin or vehicle (Baseline, and Week 3 respectively). […] Data analysis is conducted by standard statistical methods and calculations. […] Biochemical markers of skin/scalp barrier integrity are analyzed to evaluate improvements on barrier health. […] Human skin analytes (keratin 1, keratin 10, human serum albumin) are simultaneously quantified using a 3-plea Human Skin Panel LINCOplex Kit (Millipore Corp.). Soluble protein is measured using the BCA™ Protein Assay Kit. […]

[6] = 0.1% leave-on daily, Week 3, scalp tape strips

CO/C=C(/C(=O)OC)c1ccccc1Oc1cc(Oc2ccccc2C#N)ncn1 [Azoxystrobin]
IL-1RA: IL-1α ratio, % Change from Baseline [1, 6]: −58.3* %
reduction of Interleukin-1 (IL-1RA: IL-1α) ([1]; compared to a placebo control): 58%
solubility in water [2]: low solubility in water
Myeloperoxidase Results % Change from Baseline [3, 6]: 63.7* %
reduction in myeloperoxidase ([3]; compared to a placebo control): 64%
Flaking Results (ASFS Change from Baseline) ([4]; 0.1% (w/v) hydroalcoholic leave-on, daily, 3 weeks, dandruff subjects, scale 0 to 80): −13.88
reduction in flaking ([4]; after 3 weeks of treatment): 45%
ASFS reduction more than the placebo ([4]; after 3 weeks of treatment, p=0.002): 4.7 units
Human Serum Albumin % Change from Baseline [5, 6]: −54.1* %
reduction in human serum albumin (HSA) changed from a baseline ([5]; 3 weeks of treatment): 54%
